Measurements: US10675602B2, “Spray-drying process” (Bend Research, Inc., priority 2009, dated 2020)

Assay: Room temperature solubility in methanol
Format: physicochemical
Settings: room temperature (20° C. to 30° C.)

solubility in methanol: 0.3 wt %
Structure (SMILES): CCC(=O)O[C@]1(C(=O)SCF)[C@H](C)C[C@H]2[C@@H]3C[C@H](F)C4=CC(=O)C=C[C@]4(C)[C@@]3(F)[C@@H](O)C[C@@]21C [Active Agent 1, S-(fluoromethyl) 6α,9-difluoro-11β,17-dihydroxy-16α-methyl-3-oxoandrosta-1,4-diene-17β-carbothioate, 17-propionate]
